Results: ChEMBL document CHEMBL4715910, “Insights into non-peptide small-molecule inhibitors of the PD-1/PD-L1 interaction: Development and perspective” (Bioorg Med Chem, 2021)

tested on: Jurkat; assay: Cytotoxicity against human Jurkat T cells assessed as reduction in cell viability; format: cell-based

Row | Compound | IC50 [nM]
1 | Cc1cc(CN[C@H](CO)C(=O)O)c(OCc2cccc(C#N)c2)cc1OCc1cccc(-c2ccc3c(c2)OCCO3)c1C | < 100

target: Programmed cell death protein 1/Programmed cell death 1 ligand 1 (Homo sapiens, UniProt Q15116+Q9NZQ7); assay: Inhibition of PD-1/PDL1 (unknown origin) by ELISA; format: protein-complex assay
Sequence (Q15116 whole entry): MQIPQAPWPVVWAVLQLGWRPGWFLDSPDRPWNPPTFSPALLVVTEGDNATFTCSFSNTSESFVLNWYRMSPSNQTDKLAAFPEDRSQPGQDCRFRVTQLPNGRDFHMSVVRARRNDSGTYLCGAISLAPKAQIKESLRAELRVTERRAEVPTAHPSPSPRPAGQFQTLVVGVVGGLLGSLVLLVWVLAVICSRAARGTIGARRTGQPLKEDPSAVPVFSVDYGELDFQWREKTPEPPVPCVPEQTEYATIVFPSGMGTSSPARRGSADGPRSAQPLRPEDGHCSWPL
Sequence (Q9NZQ7 whole entry): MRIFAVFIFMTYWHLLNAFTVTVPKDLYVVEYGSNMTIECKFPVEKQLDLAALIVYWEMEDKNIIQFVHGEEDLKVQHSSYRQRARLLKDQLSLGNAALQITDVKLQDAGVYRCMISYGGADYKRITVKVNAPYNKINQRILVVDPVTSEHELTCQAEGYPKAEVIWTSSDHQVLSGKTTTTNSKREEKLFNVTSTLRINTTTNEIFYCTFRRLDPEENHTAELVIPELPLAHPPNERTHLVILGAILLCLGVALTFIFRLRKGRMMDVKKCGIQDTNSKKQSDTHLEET

Row | Compound | IC50 [nM]
2 | Cc1c(Nc2nccc3c(CN4CCCCC4C(=O)O)ccnc23)cccc1-c1ccccc1 (stereo not given) | ≤ 10
3 | Cc1cc(CNCCO)ccc1OCc1cccc(-c2cccc(COc3ccc(CNCCO)cc3C)c2C)c1C | ≤ 10
4 | Cc1c(-c2ccccc2)cccc1-c1nc2cc(CN3CCCC[C@H]3C(=O)O)cc(C)c2o1 | ≤ 10
5 | Cc1c(Nc2nccc3ccc(CNCCO)nc23)cccc1-c1ccccc1 | ≤ 10
6 | Cc1cc(C(=O)Nc2cccc(-c3ccccc3)c2C)ncc1CN1CCCC[C@H]1C(=O)O | ≤ 10
7 | Cc1c(COc2ccc(CN3CCCC[C@H]3C(=O)O)cc2Br)cccc1-c1cccc(COc2ccc(CN3CCCC[C@H]3C(=O)O)cc2Br)c1C | ≤ 10
8 | Cc1c(-c2ccccc2)cccc1-c1nc2cc(CNCCO)ccc2o1 | ≤ 10
9 | Cc1cc(C(=O)Nc2cccc(-c3ccccc3)c2C)ncc1CNCCO | ≤ 10

target: Programmed cell death 1 ligand 1 (Homo sapiens) (UniProt Q9NZQ7)
Sequence (Q9NZQ7 whole entry): as above
Description: Binding affinity to human PDL1 (18 to 134 residues) expressed in Escherichia coli BL21 (DE3) cells assessed as melting temperature by differential scanning fluorimetry (Rvb = 35.4 degreec)

Row | Compound | Tm [°C]
10 | COc1nc(OCc2cccc(-c3ccccc3)c2C)ccc1CNCCNC(C)=O | 48.4
